The source made the active and inactive calls. The rule behind the calls is not given here.

Here are results for 35 molecules from ChEMBL document CHEMBL6109121, “Discovery of Novel Sulfonylurea NLRP3 Inflammasome Inhibitor for the Treatment of Multiple Inflammatory Diseases” (J Med Chem, 2025).

Assay [1] can be described thus: Cytotoxicity against male C57BL/6J mouse BMDM cells. The assay is classed as functional.
Assay [2] is described as follows: Inhibition of NLRP3 inflammasome activation in LPS/ATP-stimulated male C57BL/6J mouse BMDM cells assessed as inhibition of IL-1beta secretion […] for 4 hrs followed by compound administration for 30 mins and measured after 1 hrs of ATP addition by ELISA. The assay is classed as cell-based.
Assay [3] has as its target NACHT, LRR and PYD domains-containing protein 3 (Mus musculus) (UniProt Q8R4B8). To be noted: C57BL/6J, dose 20.0 mg/kg, route po, time 13.0 hrs.
The subject of assay [4] is Mus musculus. Description: Effect on TNF-alpha level in serum of LPS/ATP-induced acute peritonitis male C57BL/6J mouse model at 20 mg/kg, po preadministered with compound for 1 hrs followed by LPS addition for 2 hrs and measured 12 hrs post ATP administration by ELISA. The assay is classed as functional, organism-based. To be noted: time 13.0 hrs. (In an ELISA, binding on a coated surface is turned into a signal by an enzyme label.)

Assay [5] has as its system Mus musculus. The experiment in a line: Antidiabetic activity in HFD-fed STZ-induced diabetic kidney disease male C57BL/6J mouse model assessed as improvement of glucose tolerance at 20 mg/kg fed with high fat diet for 4 weeks followed by STZ administration for 5 days further administered with compound via gavage for 6 weeks and measured after 120 mins of glucose administration by OGTT. The assay is classed as functional, organism-based. To be noted: time 60600.0 min.

Assay [6] relates to Mus musculus. The experiment in a line: Anti-colitis activity in DSS-induced acute ulcerative colitis male C57BL/6J mouse model assessed as increase in colon length at 5 mg/kg, po preadministered with DSS for 7 days followed by 3 days of drinking water and measured after 10 days of compound administration. The assay is classed as functional, organism-based. To be noted: time 10.0 day.

Assay [7] relates to Mus musculus. The experiment in a line: Anti-colitis activity in DSS-induced acute ulcerative colitis male C57BL/6J mouse model assessed as decrease in disease activity index score at 5 mg/kg, po preadministered with DSS for 7 days followed by 3 days of drinking water and measured after 10 days of compound administration. The assay is classed as functional, organism-based. To be noted: time 10.0 day.

The test system of assay [8] is Mus musculus. Description: Anti-colitis activity in DSS-induced acute ulcerative colitis male C57BL/6J mouse model assessed as improvement in stool consistency at 5 mg/kg, po preadministered with DSS for 7 days followed by 3 days of drinking water and measured after 10 days of compound administration. The following applies: time 10.0 day. The assay is classed as functional, organism-based.

Assay [9] relates to Mus musculus. The experiment in a line: Anti-colitis activity in DSS-induced acute ulcerative colitis male C57BL/6J mouse model assessed as reduction in fecal bleeding at 5 mg/kg, po preadministered with DSS for 7 days followed by 3 days of drinking water and measured after 10 days of compound administration. The assay is classed as functional, organism-based. The following applies: time 10.0 day.

Assay [10] can be described thus: Inhibition of NLRP3 inflammasome activation in human THP-1 cells assessed as inhibition of IL-1beta release. The assay is classed as cell-based.
In assay [11] the test system is Mus musculus. Description: Antidiabetic activity in HFD-fed STZ-induced diabetic kidney disease male C57BL/6J mouse model assessed as reduction in macrophage infiltration in kidney at 20 mg/kg fed with high fat diet for 4 weeks followed by STZ administration for 5 days and measured 6 weeks post compound administration via gavage by F4/80 immunostaining based analysis. The assay is classed as functional, organism-based.

Assay [12] has as its system Mus musculus. The experiment in a line: Anti-colitis activity in DSS-induced acute ulcerative colitis male C57BL/6J mouse model assessed as reduction in body weight loss at 5 mg/kg, po preadministered with DSS for 7 days followed by 3 days of drinking water and measured after 10 days of compound administration. The assay is classed as functional, organism-based. The following applies: time 10.0 day.

Sequence of NACHT, LRR and PYD domains-containing protein 3 (Mus musculus) (Q8R4B8 whole entry, the tested form may be a part): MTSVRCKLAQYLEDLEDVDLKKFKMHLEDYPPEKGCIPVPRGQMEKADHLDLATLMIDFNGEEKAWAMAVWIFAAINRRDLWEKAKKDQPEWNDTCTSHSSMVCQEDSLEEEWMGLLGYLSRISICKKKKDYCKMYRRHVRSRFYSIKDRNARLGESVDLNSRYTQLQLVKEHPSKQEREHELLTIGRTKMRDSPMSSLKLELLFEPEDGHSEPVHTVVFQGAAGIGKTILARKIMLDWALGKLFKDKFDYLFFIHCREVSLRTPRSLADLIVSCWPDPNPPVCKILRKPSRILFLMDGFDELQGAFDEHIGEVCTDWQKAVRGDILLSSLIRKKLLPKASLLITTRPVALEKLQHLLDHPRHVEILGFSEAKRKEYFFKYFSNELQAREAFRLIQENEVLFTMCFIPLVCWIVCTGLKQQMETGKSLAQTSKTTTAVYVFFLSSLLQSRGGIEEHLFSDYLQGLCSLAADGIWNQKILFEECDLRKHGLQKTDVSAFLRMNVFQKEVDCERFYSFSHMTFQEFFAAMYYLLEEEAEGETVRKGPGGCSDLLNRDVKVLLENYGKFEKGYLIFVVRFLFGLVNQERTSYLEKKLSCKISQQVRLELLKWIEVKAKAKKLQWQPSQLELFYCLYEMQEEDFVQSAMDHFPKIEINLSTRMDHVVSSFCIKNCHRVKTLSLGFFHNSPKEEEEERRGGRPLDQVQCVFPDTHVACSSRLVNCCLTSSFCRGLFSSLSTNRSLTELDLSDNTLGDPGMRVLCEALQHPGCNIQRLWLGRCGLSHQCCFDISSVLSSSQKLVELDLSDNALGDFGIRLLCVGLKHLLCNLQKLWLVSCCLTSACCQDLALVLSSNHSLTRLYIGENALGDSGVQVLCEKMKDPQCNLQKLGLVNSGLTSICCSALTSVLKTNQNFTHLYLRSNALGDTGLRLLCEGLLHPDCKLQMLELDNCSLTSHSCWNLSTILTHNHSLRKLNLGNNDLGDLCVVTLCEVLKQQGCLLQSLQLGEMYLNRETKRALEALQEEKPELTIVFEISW

The molecule `C=C(c1ccccc1)c1ccccc1NC(=O)NS(=O)(=O)c1cc(C(C)(C)O)co1` had a 50% cytotoxic concentration (CC50) in assay [1] greater than 100 µM. In addition, the IC50 in [2] was determined as 19.8 µM.
`O=C(Nc1c2c(cc3c1CCC3)CCC2)NS(=O)(=O)N1CCc2ccccc2C1` had a cytotoxic concentration (CC50) in assay [1] greater than 100 µM. In addition, the IC50 in assay [2] stood at 0.317 µM.
The molecule `CC(C)(O)c1coc(S(=O)(=O)NC(=O)Nc2ccccc2Sc2ccccc2)c1` registered a cytotoxic concentration (CC50) in assay [1] greater than 100 µM. Further, in assay [2], the half-maximal inhibitory concentration (IC50) was determined as 35.1 µM.
With `CN1CCC(N(C)S(=O)(=O)NC(=O)Nc2ccccc2C(=O)c2ccccc2)CC1`, in assay [1], the half-maximal cytotoxic concentration (CC50) is greater than 100 µM. The IC50 in assay [2] stood at 18 µM.
In the same order, the values of `CN1CCC(N(C)S(=O)(=O)NC(=O)Nc2ccc3c(c2)Cc2ccccc2-3)CC1` are greater than 100 µM and greater than 50 µM.
In the same order, the values of `CC(C)(O)c1coc(S(=O)(=O)NC(=O)Nc2ccccc2C(=O)c2ccoc2)c1` are greater than 100 µM and greater than 50 µM.
The corresponding values for `CC(C)(O)c1coc(S(=O)(=O)NC(=O)Nc2ccccc2C(=O)N2CCOCC2)c1` are greater than 100 µM and greater than 50 µM.
In turn, `CN(C1CCN(Cc2ccccc2)CC1)S(=O)(=O)NC(=O)Nc1c2c(cc3c1CCC3)CCC2` showed a CC50 in assay [1] greater than 100 µM. In addition, in assay [2], the IC50 was greater than 50 µM.
With `O=C(Nc1c2c(cc3c1CCC3)CCC2)NS(=O)(=O)NC1CCN(C2CC2)CC1`, the CC50 in [1] was greater than 100 µM. The half-maximal inhibitory concentration (IC50) in assay [2] stood at 1.95 µM.
`CN1CCC(N(C)S(=O)(=O)NC(=O)Nc2cccc3c2NC(=O)C3)CC1` came in with a CC50 in assay [1] greater than 100 µM. In addition, the IC50 in [2] was greater than 50 µM.
In the same order, the values of `CN1CCC(N(C)S(=O)(=O)NC(=O)Nc2cccc3c2oc2ccccc23)CC1` are greater than 100 µM and greater than 50 µM.
In the case of `O=C(Nc1c2c(cc3c1CCC3)CCC2)NS(=O)(=O)Nc1cnn(C2CCOCC2)c1`, the CC50 in [1] was greater than 100 µM. The half-inhibitory concentration (IC50) in assay [2] came to 0.139 µM.
The corresponding values for `CN(C)C(=O)c1ccccc1NC(=O)NS(=O)(=O)c1cc(C(C)(C)O)co1` are greater than 100 µM and greater than 50 µM.
The corresponding values for `CN1CCC(N(C)S(=O)(=O)NC(=O)Nc2c3c(cc4c2CCC4)CCC3)C1` (centres undefined) are greater than 100 µM and 0.122 µM.
Consider `CC(C)(O)c1coc(S(=O)(=O)NC(=O)Nc2ccccc2Cc2ccccc2)c1`, for which the CC50 in assay [1] is greater than 100 µM. In addition, in [2], the IC50 is greater than 50 µM.
The corresponding values for `CN(C1CCOCC1)S(=O)(=O)NC(=O)Nc1c2c(cc3c1CCC3)CCC2` are greater than 100 µM and 0.544 µM.
Consider `CN(c1ccncc1)S(=O)(=O)NC(=O)Nc1c2c(cc3c1CCC3)CCC2`, for which the CC50 in [1] was greater than 100 µM. Also, in assay [2], the half-maximal inhibitory concentration (IC50) is 4.43 µM.
In the same order, the values of `O=C(Nc1c2c(cc3c1CCC3)CCC2)NS(=O)(=O)N1CCNC2(CC2)C1` are greater than 100 µM and 2.03 µM.
In the same order, the values of `CC(C)(O)c1coc(S(=O)(=O)NC(=O)Nc2ccccc2Oc2ccccc2)c1` are greater than 100 µM and greater than 50 µM.
In the same order, the values of `CC(C)(O)c1coc(S(=O)(=O)NC(=O)Nc2ccccc2C(=O)c2ccccc2)c1` are greater than 100 µM and 3.82 µM.
For `CN1CCC(N(C)S(=O)(=O)NC(=O)Nc2cccc3c2OCO3)CC1`, the 50% cytotoxic concentration (CC50) in [1] is greater than 100 µM. In addition, the half-inhibitory concentration (IC50) in [2] is greater than 50 µM.
In the same order, the values of `Cc1ccc2cccc(NC(=O)NS(=O)(=O)N(C)C3CCN(C)CC3)c2n1` are greater than 100 µM and greater than 50 µM.
`CN1CCC(N(C)S(=O)(=O)NC(=O)Nc2cccc3c2C(=O)c2ccccc2-3)CC1` came in with a CC50 in [1] greater than 100 µM. In addition, the IC50 in [2] is greater than 50 µM.
The corresponding values for `CC(C)(O)c1coc(S(=O)(=O)NC(=O)Nc2ccccc2C(=O)N2CCCC2)c1` are greater than 100 µM and 19.1 µM.
In the same order, the values of `CN1CCC(N(C)S(=O)(=O)NC(=O)Nc2cc(C(C)(C)C)ccc2-c2ccc(C(C)(C)C)cc2)CC1` are 10.2 µM and greater than 50 µM.
The corresponding values for `CCN1CCC(N(C)S(=O)(=O)NC(=O)Nc2c3c(cc4c2CCC4)CCC3)CC1` are greater than 100 µM and 0.724 µM.
`CC(=O)N1CCC(NS(=O)(=O)NC(=O)Nc2c3c(cc4c2CCC4)CCC3)CC1`: the CC50 in [1] is greater than 100 µM. In [2], the IC50 turned out to be 5.37 µM.
The corresponding values for `O=C(Nc1c2c(cc3c1CCC3)CCC2)NS(=O)(=O)N1CCN2CCC1CC2` are greater than 100 µM and 0.185 µM.
As for `CC(C)N1CCC(NS(=O)(=O)NC(=O)Nc2c3c(cc4c2CCC4)CCC3)CC1`, in assay [1], the half-maximal cytotoxic concentration (CC50) is greater than 100 µM. Besides, in [2], the IC50 is 2.9 µM.
In [1], `O=C(Nc1c2c(cc3c1CCC3)CCC2)NS(=O)(=O)N1CCC(F)(F)CC1` gave a 50% cytotoxic concentration (CC50) greater than 100 µM. The IC50 in [2] came to 1.12 µM.
The corresponding values for `Cn1cc(NS(=O)(=O)NC(=O)Nc2c3c(cc4c2CCC4)CCC3)cn1` are greater than 100 µM and 0.155 µM.
Turning to `CC(C)(O)c1coc(S(=O)(=O)NC(=O)Nc2c3c(cc4c2CCC4)CCC3)c1`, in assay [3], the inhibition result was “Active”. The result in the assay on Mus musculus [4], in the assay with Mus musculus [5], in the assay with Mus musculus [6] and with Mus musculus [11] was inactive. For the same molecule, the IC50 came to 0.036 µM in [2] and 0.058 µM in assay [10]. The result in the assay with Mus musculus [7], in the assay on Mus musculus [8] and in the assay with Mus musculus [9] was Active. In the assay on Mus musculus [12], the Activity result was “Active; Significant Difference Not Observed”.
In turn, `CN1CCC(NS(=O)(=O)NC(=O)Nc2c3c(cc4c2CCC4)CCC3)CC1` returned a CC50 in assay [1] greater than 100 µM. Further, the 50% inhibitory concentration (IC50) in [2] worked out at 0.979 µM.
Take `CC(C)(O)c1coc(S(=O)(=O)NC(=O)Nc2ccccc2C(=O)c2ccccn2)c1`: in assay [1], the cytotoxic concentration (CC50) was greater than 100 µM. Further, in [2], the concentration for half-maximal inhibition (IC50) was greater than 50 µM.
The corresponding values for `CN1CCC(n2cc(NS(=O)(=O)NC(=O)Nc3c4c(cc5c3CCC5)CCC4)cn2)CC1` are greater than 100 µM and 2.99 µM.

A word on the CC50: it is the concentration at which the toxic effect on the cells reaches its halfway point. Read a low CC50 as harm at low concentration. The IC50 is the concentration that inhibits the measured activity by half.
